Results as given in article PMC4267740, “Unprecedented Therapeutic Potential with a Combination of A2A/NR2B Receptor Antagonists as Observed in the 6-OHDA Lesioned Rat Model of Parkinson's Disease” (PLoS ONE, 2014).
Several values for one entry are separate records, joined by “and”; a condition that tells them apart may be missing. Identical values can stand only once. Entries after “also recorded” stand apart in the source; their conditions may differ. Like-named read-outs stand apart in the source and are kept apart here.

Experiments:
[1] = Plasma and brain exposure in satellite lesioned rats; format: in vivo, rat; details: 90 min after dosing, mean ± SD
Procedure: Satellite lesioned rats (400–450 g) were anesthetized with isoflurane and sacrificed by exsanguination. Blood samples were collected in EDTA centrifuged 10 min at 3000 rpm at 4°C to obtain plasma and stored at −20°C prior the analysis. Brains were perfused by saline collected and immediately stored at −20°C prior the analysis. Brain samples were added to 4 volumes of water before being homogenized. A structural analog compound was added as internal standard to the samples and proteins were crashed using 8 volumes of acetonitrile. Compounds were analyzed on an API5000 mass spectrometer (ABSciex, Framingham, MA, USA.) equipped with a turbo ion spray source and interfaced with an Agilent 1290 Infinity LC system (Agilent Technologies, Waldbroon, Germany). The mass spectrometer was operated in the positive ionization mode with Multiple Reactions Monitoring used to quantify the various analytes (407 to 292 for Tozadenant; 398 to 109 for Radiprodil, 346 to 105 for Sch-58261 and 342 to 100 for Co-101244). A Waters HSS T3 column (2.1×30 mm, 1.8 µm) was used. The mobile phase consisted of 100% water with 0.1% formic acid (phase A) and 100% acetonitrile with 0.1% formic acid (phase B). The flow rate was 1 mL/min. A linear gradient was performed from 0 to 1 min (95 to 30% phase A), a jump to 90% B in 0.01 min, a hold period of 1.29 min at 90% phase B followed by equilibration at the initial condition was applied before the following injection.
(§1) Before undertaking the study, each A2A and NR2B antagonist was tested individually. The doses were selected on the basis of preliminary dose-response curves performed separately for each drug and submaximal dose (i.e. response observed is not at its maximal level) of each drug was selected for the combination studies. The two drugs were administered separately via an intraperitoneal (ip) injection with a 2-minute interval between the two drugs. Five minutes after the second injection, animals were placed in the testing cage for behavioural recording. Due to formulation and exposure issues, Tozadenant and Radiprodil had to be administered orally and therefore recording was started 60 minutes post dosing at this corresponds to maximum plasma concentrations. Eight drug-naïve animals were used for each of the four procedures; 32 in total for each combination. All behavioral experiments were conducted between 8.00 AM and 2.00 PM at the latest. Preliminary pharmacokinetic assays investigated the plasma and brain disposition of selected drugs administered alone or in combination (ie. Tozadenant/Radiprodil, and Sch-58261/Co-101244; 3 animals per group). Tozadenant and Radiprodil were measured in samples obtained 60 minutes after single oral administration at 30 mg/kg. Sch-58261 and Co-101244 were measured in samples collected 90 min after single intraperitoneal administration at 3 mg/kg.

[2] = tested on: unilateral 6-OHDA-lesioned rats; experiment: Distance traveled in actometers, monotherapy (without L-Dopa); format: in vivo, rat; details: Co-101244 1 mg/kg ip
Procedure: (§2) To protect norepinephrinergic neurons, animals were administered imipramine HCl (Sigma) 15 minutes before surgery. They were subsequently anesthetized with ketamine (Ceva, 75 mg/kg) and xylazine (Bayer, 10 mg/kg) and placed in stereotaxic frame (David Kopf Instrument). 6-OHDA was injected into the right ascending medial forebrain bundle at the following coordinates (in mm) relative to bregma and surface of the dura, AP = −3.5, ML = −1.5, DV = −8.7. Each rat received one injection of 6-OHDA (4 µg/µl) over a period of 5 minutes (0.5 µl/min) for a total of 10 µg per rat. Animals were monitored for 3 weeks to ensure full recovery and habituation to the environment and experimenters.
(§3) On day 21 post surgery, all rats were challenged with a small dose of subcutaneously administered apomorphine (Sigma, 0.05 mg/kg). Rats showing more than 90 contralateral rotations (360°) over a 45-minute recording period were included in the study. […] For each experiment, rats were allocated to the different experimental groups in order to get the same mean level of basal activity measured at the apomorphine challenge amongst the different experimental groups.
(§4) Drug-naïve separate rats were tested individually in clear acrylic chambers (LE8811 IR, Panlab). Locomotion was detected and measured by 16 infrared light-beam sensors located on each side of the enclosure at a height of 3 cm. Sensors were spaced such that the light beams formed a matrix of 15×15 squares over the surface. Activity counts were recorded on a computer and Acti-Track software (Actitrack, Panlab) was used to convert raw data into “distance traveled” and “rearing counts” for analysis as relevant dependent variables.
(§5) Six different combinations of A2A/NR2B antagonists were tested without L-Dopa. For each combination, there were four different procedures: vehicle only; A2A antagonist followed by vehicle; vehicle followed by the NR2B antagonist and A2A antagonist followed by the NR2B antagonist. The drugs, doses and combinations are described in Table 3. After drug administration, rats were placed in actometers (open-field) for monitoring the general level of motor activity (distance traveled and rearing counts).
as §1
(§6) The effects of A2A and NR2B antagonists on the level of motor activity (i.e. distance traveled and rearing counts) were assessed with three-way mixed ANOVA, combining the A2A receptor antagonist (2 levels, vehicle and the A2A drug) and the NR2B antagonist (2 levels, vehicle and the NR2B drug) as between-group factors with the time as within-subjects factor (6 or 9 levels). […]

[3] = tested on: unilateral 6-OHDA-lesioned rats; experiment: Rearing counts in actometers, monotherapy (without L-Dopa); format: in vivo, rat; details: Co-101244 1 mg/kg ip
Procedure: as §2, §3, §4, §5, §1, §6

[4] = tested on: unilateral 6-OHDA-lesioned rats; experiment: L-Dopa-induced contralateral rotations in rotometers, add-on therapy; format: in vivo, rat; details: add-on to L-Dopa 25 mg/kg ip, Sch-58261 0.3 mg/kg ip, Co-101244 1 mg/kg ip
Procedure: as §2, §3
The rats tested one week earlier for general activity (actometers) were once again placed in clear acrylic individual chambers (50×45 cm) with the same treatment (drug and dose) than that previously received plus L-Dopa. Eight chambers were placed on a level, clear glass bottom, held by a robust frame, and were subdivided into four individual test cages of 25×22 cm. A removable acrylic plate served as a lid.
Rotational behaviour was recorded using a home-made computerized system. Rats were fixed in a harness and linked to mechanical sensors connected directly to a computer. Each 360° clock-wise or counter clock-wise turn was automatically recorded for up to 120 minutes at the maximum. Throughout the experiments, rats were allocated to individual test cages.
Four different combinations were administered as add-on treatment to a low active dose of L-Dopa (25 mg/kg, ip) without any dopa decarboxylase inhibitor to avoid any additional pharmacokinetic interaction. The doses of the compounds were selected on the basis of preliminary dose-response curves performed separately for each drug. To avoid ceiling effect with L-Dopa, only submaximal doses of each drug were selected for testing (as it was done previously for monotherapy). Eight L-Dopa naïve animals were tested for each of the four pharmacological condition: vehicle and L-Dopa (25 mg/kg); A2A antagonist followed by vehicle and L-Dopa; vehicle followed by NR2B antagonist and L-Dopa; A2A antagonist followed by NR2B and L-Dopa. Due to the dominance of the L-Dopa-effect on the lesioned striatum, the unilateral 6-OHDA-lesioned rats rotated after the drugs administration and behavioral activity was recorded in rotometers (i.e. level of contralateral rotations).
All drugs were administered i.p. 25 minutes before behavioural recording, except for the Tozadenant and Radiprodil combination which was administered orally 60 minutes before behavioural recording. As Radiprodil was administered orally, L-Dopa was given 45 minutes after the Radiprodil injection whereas for the other combinations L-Dopa was given 15 minutes after the NR2B drug. The drugs, the doses and the combinations given in co-administration to L-Dopa are described in Table 4 .
The impact of treatment with A2A or NR2B receptor antagonists, given alone or in combination, on the effect of L-Dopa on contralateral rotations was also analysed with a three-way mixed ANOVA. The ANOVA included the A2A and the NR2B receptor antagonists (both, 2 levels, vehicle and the drug) as between-group factors combined with time (12 levels) as within-subjects factor. […] The ability of the combination to increase and prolong the activity of L-Dopa was also explored. Consequently, drug effects were analyzed for every 10-min time interval. […]

NR2B [5] = details: In vitro Binding; cited from earlier work
NR2B [6] = tested on: NR2B; set-up: method as in PMID 10454475, PMID 10425109; details: TEVC recording; cited from earlier work

Cc1ccc(CC2(O)CCN(CCOc3ccc(O)cc3)CC2)cc1 [Co-101244]
Plasma concentration ([1]; administered alone, ip 3 mg/kg, 3 animals (Co-101244 n = 2)): 54.7 (n = 2) ng/mL
Plasma concentration ([1]; administered in combination Sch-58261+Co-101244, both ip 3 mg/kg, 3 animals): 55.4 ± 8.32 ng/mL
Distance traveled, drugs alone vs vehicle, p (Newman-Keuls) ([2]; Istradefylline 0.3 mg/kg ip): not all drugs when administered alone improved distance traveled; also recorded: Not significant
Distance traveled, drugs main effect, p (three-way mixed ANOVA) ([2]; Istradefylline 0.3 mg/kg ip): p<0.05
Distance traveled, drugs × time effect, p (three-way mixed ANOVA) ([2]; Istradefylline 0.3 mg/kg ip): p<0.001
Distance traveled, drugs main effect, p (three-way mixed ANOVA) ([2]; Sch-58261 1 mg/kg ip): p<0.001
Distance traveled, drugs × time effect, p (three-way mixed ANOVA) ([2]; Sch-58261 1 mg/kg ip): p<0.001
Rearing counts, drugs alone vs vehicle, p (Newman-Keuls) ([3]; Istradefylline 0.3 mg/kg ip): Co-101244, not significant
Rearing counts, drugs main effect, p (three-way mixed ANOVA) ([3]; Istradefylline 0.3 mg/kg ip): Not significant
Rearing counts, drugs × time effect, p (three-way mixed ANOVA) ([3]; Istradefylline 0.3 mg/kg ip): p<0.01
Rearing counts, drugs main effect, p (three-way mixed ANOVA) ([3]; Sch-58261 1 mg/kg ip): p<0.001
Rearing counts, drugs × time effect, p (three-way mixed ANOVA) ([3]; Sch-58261 1 mg/kg ip): p<0.001
Contralateral rotations, drugs main effect, p (three-way mixed ANOVA) [4]: Not significant
Contralateral rotations, drugs × time effect, p (three-way mixed ANOVA) [4]: p<0.001
IC50 (NR2B [5]): 4 nM
IC50 (NR2B [6]): 26 nM and 43 nM
